How the values were obtained:
Test in all cases: relative viability (nuclei count vs DMSO), 5 days (fraction); higher = more cells survive
VE-821 + Tozasertib = compound: CS(=O)(=O)c1ccc(-c2cnc(N)c(C(=O)Nc3ccccc3)n2)cc1 [VE-821] + Cc1cc(Nc2cc(N3CCN(C)CC3)nc(Sc3ccc(NC(=O)C4CC4)cc3)n2)n[nH]1 [Tozasertib] (partner 0.1 µM)
Procedure, shortened: (§1)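 Relative viability equals treated-well nuclei counts divided by vehicle-well nuclei counts. Counts came from 4× images of lung cancer cell lines grown in 1536-well plates for 5 days after pin-tool dosing on the day after seeding. Dosing used one drug alone or a fixed anchor-drug dose plus five library-drug doses (not always all listed) in √10 steps, and values are medians of duplicate plates.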

Ruxolitinib + Foretinib = compound: N#CC[C@H](C1CCCC1)n1cc(-c2ncnc3[nH]ccc23)cn1 [Ruxolitinib] + COc1cc2c(Oc3ccc(NC(=O)C4(C(=O)Nc5ccc(F)cc5)CC4)cc3F)ccnc2cc1OCCCN1CCOCC1 [Foretinib] (partner 0.25 µM)
Procedure, shortened: as §1

VE-821 + Foretinib = compound: CS(=O)(=O)c1ccc(-c2cnc(N)c(C(=O)Nc3ccccc3)n2)cc1 [VE-821] + COc1cc2c(Oc3ccc(NC(=O)C4(C(=O)Nc5ccc(F)cc5)CC4)cc3F)ccnc2cc1OCCCN1CCOCC1 [Foretinib] (partner 0.25 µM)
Procedure, shortened: as §1

VE-821 + Trametinib = compound: CS(=O)(=O)c1ccc(-c2cnc(N)c(C(=O)Nc3ccccc3)n2)cc1 [VE-821] + CC(=O)Nc1cccc(-n2c(=O)n(C3CC3)c(=O)c3c(Nc4ccc(I)cc4F)n(C)c(=O)c(C)c32)c1 [Trametinib] (partner 0.02 µM)
Procedure, shortened: as §1

Cell Line	relative viability (VE-821 + Tozasertib; first compound 0.08 µM)	relative viability (VE-821 + Tozasertib; first compound 0.253 µM)	relative viability (VE-821 + Tozasertib; first compound 0.8 µM)	relative viability (VE-821 + Tozasertib; first compound 2.53 µM)	relative viability (VE-821 + Tozasertib; first compound 8 µM)	relative viability (Ruxolitinib + Foretinib; first compound 0.08 µM)	relative viability (Ruxolitinib + Foretinib; first compound 0.253 µM)	relative viability (Ruxolitinib + Foretinib; first compound 0.8 µM)	relative viability (Ruxolitinib + Foretinib; first compound 2.53 µM)	relative viability (Ruxolitinib + Foretinib; first compound 8 µM)	relative viability (VE-821 + Foretinib; first compound 0.08 µM)	relative viability (VE-821 + Foretinib; first compound 0.253 µM)	relative viability (VE-821 + Foretinib; first compound 0.8 µM)	relative viability (VE-821 + Foretinib; first compound 2.53 µM)	relative viability (VE-821 + Foretinib; first compound 8 µM)	relative viability (VE-821 + Trametinib; first compound 0.08 µM)	relative viability (VE-821 + Trametinib; first compound 0.253 µM)	relative viability (VE-821 + Trametinib; first compound 0.8 µM)	relative viability (VE-821 + Trametinib; first compound 2.53 µM)	relative viability (VE-821 + Trametinib; first compound 8 µM)
A-427	0.231	0.186	0.217	0.192	0.144	0.992	1.1	1.06	0.918	0.988	1.34	0.97	0.991	1.05	0.561	0.868	0.676	0.812	0.686	0.495
HCC-44	1.08	0.865	0.841	0.907	0.708											1.11	1.03	1.12	1.13	0.961
NCI-H2170	0.744	0.727	0.662	0.794	0.477	0.992	0.609	0.602	0.951	0.943	1.01	0.972	0.952	0.958	0.798	0.977	0.865	0.947	0.819	0.629
NCI-H1623	0.481	0.404	0.398	0.463	0.364	0.908	0.94	0.971	1.01	0.994	0.936	0.816	0.741	0.867	0.73					
NCI-H2228	0.312	0.2	0.212	0.256	0.156	0.86	0.911	0.794	0.717	0.429	0.945	0.849	0.946	0.749	0.567	0.51	0.645	0.354	0.644	0.382
